Where two headings read alike, the source gives them in different places.
Assays:
in vivo = conditions: both, NIH, mouse, iv
Experimental: Blood was collected from the retro-orbital plexus at designated time points and they were kept in cold heparin coated glass tubes. The blood from 1 male and 1 female was pooled and plasma was isolated and stored at −80°C until analysis. […] Pharmacokinetic parameters was determined from the concentration-time data by non compartment model using the 3P97 software (Practical Pharmacokinetics Software, Beijing, China).

liver = assay: Swiss mice hepatotoxicity model; conditions: after 2 weeks, liver tissues
HepG2 cells [1] = assay: Doxorubicin and rhodamine 123 accumulation by flow cytometry in parental cells; type: cell-based, human; conditions: in the presence of lapatinib
Experimental: The human hepatocellular carcinoma cell line HepG2 was obtained from American Type Culture Collection (ATCC). The Dox-selected derivative ABCB1-overexpressing HepG2/Adr subline was established as previous study. All cells were grown in DMEM supplemented with 10% fetal bovine serum, 100 units/mL streptomycin sulfate and 100 units/mL penicillin G sulfate, and maintained at 37°C in the presence of 5% CO2. HepG2/Adr cells were cultured with 1.2 μM Dox to maintain its ABCB1-overexpressing properties. All cells were grown in drug-free culture medium for more than 2 weeks before assay.
The accumulation of doxorubicin or rhodamine 123 in HepG2 and HepG2/Adr cells was measured as previously described. Verapamil, a known ABCB1 inhibitor, was used as a positive control.

Swiss mice liver tissues = assay: Ex vivo doxorubicin accumulation in Swiss mice liver tissues; conditions: 2.5 μM lapatinib, 10 μM doxorubicin
Experimental: The fresh normal liver tissue adjacent to the hepatocellular carcinoma retrieved from Sun Yat-sen university cancer center was used for the drug accumulation assay ex vivo. Informed consent was obtained from the patients before tissue collection. The work was approved by the ethics review committee at Sun Yat-sen University (Guangzhou, China). Liver tissues of 50-100 mg were cut into small pieces (1mm^3) and cultured in DMEM containing 15% fetal bovine serum at 37°C. […] Subsequently, the tissues were then collected, centrifuged and washed twice with cold PBS containing 10 μM verapamil. Then, liver tissues were resuspended in 1 ml/100 mg tissues lysis solution which contained 0.3 mol/l HCl and 60% ethanol (1:1) and was homogenized at 4°C and then centrifuged at 12 000 × g [43]. The supernatant was removed and its fluorescence signal was measured by a spectrofluorometer at λex 470 nm and λem 590 nm. Simultaneously, the standard curve of doxorubicin was made with the same condition. The doxorubicin accumulation in liver tissues (μg/g) was calculated according to the fluorescence value using a standard curve.

ABCB1 = ABCB1 expression by Western blot and qRT-PCR; type: cell-based, human; conditions: HepG2/Adr cells, lapatinib for 24, 48 or 72 h
Experimental: After being incubated in blocking solution containing 5% non-fat milk in TBST buffer (10 mM Tris-HCL (pH 8.0), 150 mM NaCl, and 0.1% Tween 20) for 2 h at room temperature, membranes were incubated with primary antibody ABCB1 (1:1000 dilution, Santa Cruz Biotechnology) and GAPDH (1:5000 dilution, Kangcheng Biotechnology). The membranes were then incubated for 2 h with HRP-conjugated secondary antibody at 1:5000 dilution. Immunoreactive bands were visualized by the enhanced Phototope TM-HRP Detection Kit (Cell Signaling, USA) and exposed to Kodak medical X-ray processor (Carestream Health, USA). Protein expression was quantified by Scion Image software (Scion Co, USA).
Total cellular RNA was isolated by Trizol Reagent (Gibco BRL, USA) RNA extraction kit following manufacture instruction. cDNA were prepared from the sensitive HepG2 and the resistant HepG2/Adr cells. Reverse transcription was done with reverse transcriptase (Promega Corp., Madison, WI). Oligonucleotides primers for ABCB1 and GAPDH were synthesized commercially (Invitrogen Co., China). They included ABCB1 (homo sapiens), sense primer, 5′-[sequence]-3′, antisense primer, 5′-[sequence]-3′; Abcb1 (mus), sense primer, 5′-[sequence]-3′, antisense primer, 5′-[sequence]-3′; GAPDH, sense primer, 5′-[sequence]-3′, antisense primer, 5′-[sequence]-3′. […] Relative quantification of ABCB1 was performed using the 2^−ΔΔCt method [46]. […]

[2] = molecular target: T1, ABCB1-overexpressing HepG2/Adr cells (Homo sapiens, UniProt P08183); assay: MTT cytotoxicity of doxorubicin with lapatinib, resistant cells; type: cell-based; conditions: lapatinib added 1 h before doxorubicin
T1 construct: The Dox-selected derivative ABCB1-overexpressing HepG2/Adr subline was established as previous study; endogenous in cells; host or cells: HepG2/Adr (doxorubicin-selected subline of human HepG2)
Experimental: (§1) We collected the cells and seeded them at a density of 3.0 × 10^3 cells per well in 96-well plates. […] After 68 h, MTT (5 mg/mL, 20 μL) was added into each well and cultured for another 4 h. Then the medium was discarded and each well was added with 120 μL DMSO. Finally, optical density was measured at 540 nm with background subtraction at 670 nm by Model 550 Microplate Reader (Bio-Rad, Hercules, CA, USA).

HepG2 cells [3] = assay: MTT cytotoxicity of doxorubicin with lapatinib, parental cells; type: cell-based, human; conditions: lapatinib added 1 h before doxorubicin
Experimental: as §1

[4] = human pharmacokinetic studies ref 35, 36; cited from earlier work
[5] = Adverse events in the hepatobiliary system in patients with HER2-overexpressing metastatic breast cancer; conditions: text count, cohort of 39 patients

T1 sequence (P08183 whole entry): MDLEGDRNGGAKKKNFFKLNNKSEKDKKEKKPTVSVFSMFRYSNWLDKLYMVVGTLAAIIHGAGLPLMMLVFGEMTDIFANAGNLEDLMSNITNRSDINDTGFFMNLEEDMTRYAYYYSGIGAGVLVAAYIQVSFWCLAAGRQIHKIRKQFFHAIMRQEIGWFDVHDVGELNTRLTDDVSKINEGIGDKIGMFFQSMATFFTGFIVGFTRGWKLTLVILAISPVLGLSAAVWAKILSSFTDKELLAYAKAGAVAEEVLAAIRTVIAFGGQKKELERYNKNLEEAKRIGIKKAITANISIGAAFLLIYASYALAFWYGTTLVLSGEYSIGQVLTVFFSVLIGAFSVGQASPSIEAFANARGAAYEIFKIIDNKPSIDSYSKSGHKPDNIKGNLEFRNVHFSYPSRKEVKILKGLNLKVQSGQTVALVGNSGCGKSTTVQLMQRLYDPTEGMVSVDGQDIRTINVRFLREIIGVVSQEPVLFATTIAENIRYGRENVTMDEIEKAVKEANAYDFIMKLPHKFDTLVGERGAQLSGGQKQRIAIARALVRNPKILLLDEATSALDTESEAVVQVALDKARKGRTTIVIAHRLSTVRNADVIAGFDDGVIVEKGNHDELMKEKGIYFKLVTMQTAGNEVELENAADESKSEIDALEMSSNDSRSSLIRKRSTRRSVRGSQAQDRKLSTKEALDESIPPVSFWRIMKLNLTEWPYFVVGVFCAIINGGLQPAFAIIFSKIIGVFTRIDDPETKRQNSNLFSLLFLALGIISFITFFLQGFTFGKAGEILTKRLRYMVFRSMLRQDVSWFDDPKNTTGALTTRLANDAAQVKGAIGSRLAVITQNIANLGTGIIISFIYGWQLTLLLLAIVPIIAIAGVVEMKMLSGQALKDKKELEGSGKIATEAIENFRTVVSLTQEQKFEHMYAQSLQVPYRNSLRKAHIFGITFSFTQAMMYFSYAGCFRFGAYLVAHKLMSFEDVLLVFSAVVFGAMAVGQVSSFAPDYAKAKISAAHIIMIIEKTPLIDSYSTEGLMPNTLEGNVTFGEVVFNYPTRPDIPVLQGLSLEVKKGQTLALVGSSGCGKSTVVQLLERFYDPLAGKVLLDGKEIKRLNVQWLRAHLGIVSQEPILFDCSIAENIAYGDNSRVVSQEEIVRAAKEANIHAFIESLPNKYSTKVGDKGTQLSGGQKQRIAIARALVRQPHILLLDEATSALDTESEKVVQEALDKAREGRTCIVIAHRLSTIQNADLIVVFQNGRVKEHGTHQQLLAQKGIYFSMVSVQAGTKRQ

Row | Compound | AUC(0-inf) (in vivo; in vivo, 10 mg/kg) | AUC(0-t) (in vivo; in vivo, 10 mg/kg) | Vd (in vivo; in vivo, 10 mg/kg) | MRT (in vivo; plasma, 10 mg/kg) | half-life (in vivo; plasma, 10 mg/kg) | liver histology (HE staining) (liver) | intracellular accumulation of doxorubicin (HepG2 cells [1]) | intracellular accumulation of rhodamine 123 (HepG2 cells [1]) | increase of fluorescent index of doxorubicin (Swiss mice liver tissues) | ABCB1 RNA and protein expressions (ABCB1) | effect on cytotoxicity of doxorubicin [2] | effect on cytotoxicity of doxorubicin (HepG2 cells [3]) | half-life [4] | highest peak plasma lapatinib concentration [4] | MRT (in vivo; in vivo, 18 mg/kg) | Vd (in vivo; in vivo, 18 mg/kg) | clearance (in vivo; in vivo, 18 mg/kg) | half-life (in vivo; in vivo, 18 mg/kg) | patients who showed grade 1 abnormal hepatic function [5]
1 | COc1cccc2c1C(=O)c1c(O)c3c(c(O)c1C2=O)C[C@@](O)(C(=O)CO)C[C@@H]3O[C@H]1C[C@H](N)[C@H](O)[C@H](C)O1 [Doxorubicin] | 2960 ± 878 ng·h/mL | 2920 ± 841 ng·h/mL | 0.00339 ± 0.00121 L | 7.51 ± 1.08 h | 5.2 ± 0.75 h | mild central venous hyperemia, Hepatic cord disorder and vacuolar degeneration | – | – | – | – | – | – | – | – | – | – | – | – | –
2 | CS(=O)(=O)CCNCc1ccc(-c2ccc3ncnc(Nc4ccc(OCc5cccc(F)c5)c(Cl)c4)c3c2)o1 [Lapatinib] | – | – | – | – | – | – | not altered | not altered | 2.46 fold | not significantly altered | enhance the cytotoxicity effect of doxorubicin in HepG2/Adr cells in a concentration-dependent manner | not in the parental HepG2 cells | approximately 17 h | roughly 3 μM | – | – | – | – | –
3 | CC(=O)O[C@H]1C(=O)[C@@]2(C)[C@H]([C@H](OC(=O)c3ccccc3)[C@]3(O)C[C@H](OC(=O)[C@H](O)[C@@H](NC(=O)c4ccccc4)c4ccccc4)C(C)=C1C3(C)C)[C@]1(OC(C)=O)CO[C@@H]1C[C@@H]2O [Paclitaxel, paclitaxel] | – | – | – | – | – | mild liver damage | – | – | – | – | – | – | – | – | 1.42 ± 0.08 h | 0.015 ± 0.00128 L | 0.139 mL/min | 1.24 ± 0.06 h | 2 patients

From paper PMC4627342 (Oncotarget, 2015)
